Data set [1] is described as follows: Motilin immunoreactivity concentration in plasma, half-life after intravenous administration (Example 8). The settings on record: SD, rat, in vivo, 10 nmol/kg. As to the method: The experiment was carried out using rats into which polyethylene tube (PE-50 manufactured by Clay Adams) was inserted into thigh artery under an anesthetized condition with Nembutal. As to a test system, male SD strain rats (Nippon Charles River) of 7 weeks age were used where one group comprised 3 rats. Human motilin or a derivative thereof in a dose of 10 nmol/kg was administered into tail vein of the rat and the blood before the administration and until 60 minutes after the administration was periodically collected by a polyethylene tube inserted into the thigh artery. To the collected blood were added EDTA (manufactured by Dojin Laboratories) and aprotinin (manufactured by Bayer) as a stabilizer and an anti-coagulant, respectively and the plasma was separated therefrom by centrifugal separation. Motilin immunoreactivity concentration in plasma was measured by a competitive radioimmunoassay (RIA) (FIG. 8). At that time, a rabbit polyclonal antibody (#870623) which specifically recognizes the amino acid numbers 1 to 12 of native motilin shown by SEQ ID No: 102 was used as an antibody and, as a labeled compound, ^125I-[Tyr^7] human motilin was used.

Another data set can be described thus: in vivo. The settings on record: rat; for AUC(0-inf) / C0 / Cmax / Tmax / half-life: male, SD, 0.1 mg/kg. How it is done: Changes in ANP immunoreactivity concentration in plasma when a native ANP and a chimeric peptide (chimeric ANP) to which a half-life-extension peptide was bestowed were administered into vein of rats were investigated.
As a test system, male rats of an SD strain of 7 weeks age (provided from Nippon Charles River) were subjected to the experiment where one group comprised three rats. […] At that time, a rabbit polyclonal antibody (#8) recognizing a ring part of ANP was used as an antibody and ^125I-[Tyr^28] α-hANP was used as a labeling compound.
Pharmacokinetic parameters were calculated from the resulting changes in immunoreactivity concentrations in plasma. At that time, WinNonlin Professional Ver. 4.0.1 (manufactured by Pharsight Corporation, U.S.A.) was used as the analytical software. Method for the calculation of each parameter is mentioned as follows.
Concentration at time 0 (C0; extrapolated value, ng/mL), area under the curve for concentration in plasma vs. time (AUC; ng.min/mL) and quenching half-life (T½; minute(s)) were calculated as follows. C0 was calculated as a value at time by means of extrapolation from the changes in immunoreactivity concentration in plasma at each blood collection period. AUC was calculated by a trapezoidal method using the immunoreactivity concentrations in plasma at all measuring points (t) and an extrapolated value until the infinitive time was determined. T½ was calculated by means of a least-squares method from the inclination of a straight line connecting several points in a disappearing phase of the immunoreactivity concentration in plasma. In the case of a subcutaneous administration, C0 was not determined but the maximum concentration in plasma (Cmax; ng/mL) and the time reaching the maximum concentration in plasma (Tmax; min) were determined.

SMILES strings stand for the structures. Where a SMILES comes first, the peptide text is derived from it. Bridges are numbered along the chain shown (N, C = ends).

For the molecule `CC[C@H](C)[C@H](NC(=O)[C@@H]1CCCN1C(=O)[C@@H](NC(=O)[C@@H](N)Cc1ccccc1)C(C)C)C(=O)N[C@@H](Cc1ccccc1)C(=O)N[C@H](C(=O)N[C@@H](Cc1ccc(O)cc1)C(=O)NCC(=O)N[C@@H](CCC(=O)O)C(=O)N[C@@H](CC(C)C)C(=O)N[C@@H](CCC(N)=O)C(=O)N[C@@H](CCCNC(=N)N)C(=O)N[C@H](C(=O)N[C@@H](CCC(N)=O)C(=O)N[C@@H](CCC(N)=O)C(=O)N[C@@H](CCCCN)C(=O)N[C@@H](CCCNC(=N)N)C(=O)N[C@@H](CC(=O)O)C(=O)N[C@@H](CO)C(=O)N[C@@H](CCCNC(=N)N)C(=O)N[C@@H](CCCNC(=N)N)C(=O)N1CCC[C@H]1C(=O)N1CCC[C@H]1C(=O)N[C@@H](C)C(=O)N[C@@H](CCCCN)C(=O)N[C@@H](CC(C)C)C(=O)N[C@@H](CCC(N)=O)C(=O)N1CCC[C@H]1C(=O)N[C@@H](CCCNC(=N)N)C(=O)O)C(C)C)[C@@H](C)O` [Chimeric motilin (X)(MG-17E/D)] (H-FVPIFTYGELQRVQQKRDSRRPPAKLQPR-OH), in data set [1] (intravenous, male rats, N = 3, read-out: T½ Mean Value), the half-life came out at 7.89 min.

`CC[C@H](C)[C@H](NC(=O)[C@@H]1CCCN1C(=O)[C@@H](NC(=O)[C@@H](N)Cc1ccccc1)C(C)C)C(=O)N[C@@H](Cc1ccccc1)C(=O)N[C@H](C(=O)N[C@@H](Cc1ccc(O)cc1)C(=O)NCC(=O)N[C@@H](CCC(=O)O)C(=O)N[C@@H](CC(C)C)C(=O)N[C@@H](CCC(N)=O)C(=O)N[C@@H](CCCNC(=N)N)C(=O)N[C@H](C(=O)N[C@@H](CCC(N)=O)C(=O)N[C@@H](CCC(N)=O)C(=O)N[C@@H](CCCNC(=N)N)C(=O)N[C@@H](CCCCN)C(=O)N[C@@H](CCC(=O)O)C(=O)N[C@@H](Cc1ccccc1)C(=O)N[C@@H](CCCCN)C(=O)N[C@@H](CCCCN)C(=O)N1CCC[C@H]1C(=O)N1CCC[C@H]1C(=O)N[C@@H](C)C(=O)N[C@@H](CCCCN)C(=O)N[C@@H](CC(C)C)C(=O)N[C@@H](CCC(N)=O)C(=O)N1CCC[C@H]1C(=O)N[C@@H](CCCNC(=N)N)C(=O)O)C(C)C)[C@@H](C)O` [Chimeric motilin (O)(MG-18S/F)] (H-FVPIFTYGELQRVQQRKEFKKPPAKLQPR-OH; N-terminus and C-terminus assumed) had a half-life in data set [1] (male, iv) of 7.73 min.

In the case of `CC[C@H](C)[C@H](NC(=O)[C@@H]1CCCN1C(=O)[C@@H](NC(=O)[C@@H](N)Cc1ccccc1)C(C)C)C(=O)N[C@@H](Cc1ccccc1)C(=O)N[C@H](C(=O)N[C@@H](Cc1ccc(O)cc1)C(=O)NCC(=O)N[C@@H](CCC(=O)O)C(=O)N[C@@H](CC(C)C)C(=O)N[C@@H](CCC(N)=O)C(=O)N[C@@H](CCCNC(=N)N)C(=O)N[C@H](C(=O)N[C@@H](CCC(N)=O)C(=O)N[C@@H](CCC(N)=O)C(=O)N[C@@H](CCCNC(=N)N)C(=O)N[C@@H](CCCCN)C(=O)NCC(=O)N[C@@H](CCC(=O)O)C(=O)N[C@@H](CO)C(=O)N[C@@H](CCCCN)C(=O)N[C@@H](CCCCN)C(=O)N1CCC[C@H]1C(=O)N1CCC[C@H]1C(=O)N[C@@H](C)C(=O)N[C@@H](CCCCN)C(=O)N[C@@H](CC(C)C)C(=O)N[C@@H](CCC(N)=O)C(=O)N1CCC[C@H]1C(=O)N[C@@H](CCCNC(=N)N)C(=O)O)C(C)C)[C@@H](C)O` [Chimeric motilin (Z)(MG-i17G)] (H-FVPIFTYGELQRVQQRKGESKKPPAKLQPR-OH; N-terminus and C-terminus assumed), the half-life in data set [1] (male, iv) came out at 10.5 min.

As to `CC[C@H](C)[C@H](NC(=O)[C@@H]1CCCN1C(=O)[C@@H](NC(=O)[C@@H](N)Cc1ccccc1)C(C)C)C(=O)N[C@@H](Cc1ccccc1)C(=O)N[C@H](C(=O)N[C@@H](Cc1ccc(O)cc1)C(=O)NCC(=O)N[C@@H](CCC(=O)O)C(=O)N[C@@H](CC(C)C)C(=O)N[C@@H](CCC(N)=O)C(=O)N[C@@H](CCCNC(=N)N)C(=O)N[C@H](C(=O)N[C@@H](CCC(N)=O)C(=O)N[C@@H](CCC(N)=O)C(=O)N[C@@H](CCCNC(=N)N)C(=O)N[C@@H](CCCCN)C(=O)N[C@@H](CCC(=O)O)C(=O)N[C@@H](CO)C(=O)N[C@@H](CCCCN)C(=O)N[C@@H](CCCCN)C(=O)N1CCC[C@H]1C(=O)N1CCC[C@H]1C(=O)N[C@@H](C)C(=O)N[C@@H](CCCCN)C(=O)N[C@@H](CC(C)C)C(=O)N[C@@H](C)C(=O)N[C@@H](C)C(=O)N[C@@H](CC(C)C)C(=O)N[C@@H](CCCCN)C(=O)N[C@@H](C)C(=O)O)C(C)C)[C@@H](C)O` [Chimeric motilin (VI)(MG-H1)] (H-FVPIFTYGELQRVQQRKESKKPPAKLAALKA-OH; N-terminus and C-terminus assumed), the half-life in data set [1] (male, iv) was found to be 9.94 min.

As to `CC[C@H](C)[C@H](NC(=O)[C@@H]1CCCN1C(=O)[C@@H](NC(=O)[C@@H](N)Cc1ccccc1)C(C)C)C(=O)N[C@@H](Cc1ccccc1)C(=O)N[C@H](C(=O)N[C@@H](Cc1ccc(O)cc1)C(=O)NCC(=O)N[C@@H](CCC(=O)O)C(=O)N[C@@H](CC(C)C)C(=O)N[C@@H](CCC(N)=O)C(=O)N[C@@H](CCCNC(=N)N)C(=O)N[C@H](C(=O)N[C@@H](CCC(N)=O)C(=O)N[C@@H](CCC(N)=O)C(=O)N[C@@H](CCCCN)C(=O)N[C@@H](CCCCN)C(=O)N[C@@H](CO)C(=O)N[C@@H](CCC(=O)O)C(=O)N[C@@H](CCCCN)C(=O)N[C@@H](CCCNC(=N)N)C(=O)N1CCC[C@H]1C(=O)N1CCC[C@H]1C(=O)N[C@@H](C)C(=O)N[C@@H](CCCCN)C(=O)N[C@@H](CC(C)C)C(=O)N[C@@H](CCC(N)=O)C(=O)N1CCC[C@H]1C(=O)N[C@@H](CCCNC(=N)N)C(=O)O)C(C)C)[C@@H](C)O` [Chimeric motilin (Y)(MG-BR)] (H-FVPIFTYGELQRVQQKKSEKRPPAKLQPR-OH; N-terminus and C-terminus assumed), the half-life in data set [1] (male, iv) was 11.6 min.

In the data set “in vivo” (iv), `CC[C@H](C)[C@@H]1NC(=O)[C@H](CCCNC(=N)N)NC(=O)[C@H](CC(=O)O)NC(=O)[C@H](CCSC)NC(=O)[C@H](CCCNC(=N)N)NC(=O)CNC(=O)CNC(=O)[C@H](Cc2ccccc2)NC(=O)[C@@H](NC(=O)[C@H](CO)NC(=O)[C@H](CO)NC(=O)[C@H](CCCNC(=N)N)NC(=O)[C@H](CCCNC(=N)N)NC(=O)[C@H](CC(C)C)NC(=O)[C@@H](N)CO)CSSC[C@@H](C(=O)N[C@@H](CC(N)=O)C(=O)N[C@@H](CO)C(=O)N[C@@H](Cc2ccccc2)C(=O)N[C@@H](CCCNC(=N)N)C(=O)N[C@@H](Cc2ccc(O)cc2)C(=O)O)NC(=O)CNC(=O)[C@H](CC(C)C)NC(=O)CNC(=O)[C@H](CO)NC(=O)[C@H](CCC(N)=O)NC(=O)[C@H](C)NC(=O)CNC1=O` [Native ANP, reference compound] showed an area under the curve AUC(0-inf) of 25 ng·h/mL and a C0 of 993 ± 208 ng/mL. For the same molecule, in “in vivo” (sc), the AUC(0-inf) is 8.92 ng·h/mL, the concentration peaked (Cmax) at 22.3 ± 5.3 ng/mL and the Tmax is 8.3 min.

In the case of `CC[C@H](C)[C@@H]1NC(=O)[C@H](CCCNC(=N)N)NC(=O)[C@H](CC(=O)O)NC(=O)[C@H](CCSC)NC(=O)[C@H](CCCNC(=N)N)NC(=O)CNC(=O)CNC(=O)[C@H](Cc2ccccc2)NC(=O)[C@@H](N)CSSC[C@@H](C(=O)N[C@@H](CC(N)=O)C(=O)N[C@@H](CO)C(=O)N[C@@H](Cc2ccccc2)C(=O)N[C@@H](CCCNC(=N)N)C(=O)N[C@@H](Cc2ccc(O)cc2)C(=O)N[C@H](C(=O)N[C@@H](CCC(N)=O)C(=O)N[C@@H](CCC(N)=O)C(=O)N[C@@H](CCCNC(=N)N)C(=O)N[C@@H](CCCCN)C(=O)N[C@@H](CCC(=O)O)C(=O)N[C@@H](CO)C(=O)N[C@@H](CCCCN)C(=O)N[C@@H](CCCCN)C(=O)N2CCC[C@H]2C(=O)N2CCC[C@H]2C(=O)N[C@@H](C)C(=O)N[C@@H](CCCCN)C(=O)N[C@@H](CC(C)C)C(=O)N[C@@H](CCC(N)=O)C(=O)N2CCC[C@H]2C(=O)N[C@@H](CCCNC(=N)N)C(=O)O)C(C)C)NC(=O)CNC(=O)[C@H](CC(C)C)NC(=O)CNC(=O)[C@H](CO)NC(=O)[C@H](CCC(N)=O)NC(=O)[C@H](C)NC(=O)CNC1=O` [Chimeric ANP (A)] (H-CFGGRMDRIGAQSGLGCNSFRYVQQRKESKKPPAKLQPR-OH; disulfide 1-17; N-terminus and C-terminus assumed), in “in vivo” (iv), the AUC(0-inf) was 196 ng·h/mL, the C0 turned out to be 1240 ± 71 ng/mL, the half-life was found to be 24 ± 2.5 min and the “concentration in plasma as compared with the native ANP” value was “rising concentration in plasma”. Further, in the data set “in vivo” (sc), the AUC(0-inf) is 34 ng·h/mL, the Cmax amounted to 63.3 ± 31.8 ng/mL, the time of peak concentration (Tmax) is 5 min and the half-life worked out at 46.4 ± 8 min. The “concentration in plasma as compared with the native ANP” value in “in vivo” (sc) is given as “rising concentration in plasma”.

By AUC(0-inf) is commonly meant total exposure, with the tail of the curve extrapolated. A high value points to more exposure. For orientation: Cmax means the highest concentration seen after dosing. By Tmax is commonly meant the time from dosing to the highest level.

The values are drawn from patent US8551937B2, “Peptide having an extending action for half-life of object peptide in plasma” (priority 2008, dated 2013).
